System: subcutaneous prostate cancer model (PC3)
Experiment: Tumour specific uptake of Evans Blue after ACT, variable Enhancement MI
Type: in vivo, mice
Details: cluster composition 2 mL/kg i.v.; Enhancement 0.5 MHz, MI 0, 0.1, 0.2, 0.3, 0.4; tumours excised 30 min after treatment
Experimental: To investigate the effect of MI variance of the US Enhancement field, tumour specific uptake of Evans Blue (EB, fluorescent dye) has been investigated in a subcutaneous prostate cancer model (PC3) in mice. Five groups with Enhancement insonation MIs of 0, 0.1, 0.2, 0.3 and 0.4 were investigated (N=3 animals per group). […] 30 min after treatment, the tumors were excised and the amount of EB was measured by spectrophotometry at 620 nm.

Cc1cc(-c2ccc(/N=N/c3ccc4c(S(=O)(=O)O)cc(S(=O)(=O)O)c(N)c4c3O)c(C)c2)ccc1/N=N/c1ccc2c(S(=O)(=O)O)cc(S(=O)(=O)O)c(N)c2c1O [Evans Blue]
tissue uptake of Evans Blue as a function of Enhancement MI: increases from no US (MI=0) to MI=0.1 and further with MI=0.2, but then drops again with MI=0.3

Reference: US20240269489A1, “TREATMENT OF THE CENTRAL NERVOUS SYSTEM” (ACT Therapeutics Ltd, priority 2021, published 2024)
